Measurements from PubChem BioAssay (NCI).
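Test compounds were applied to cells in 96-well plates for 48 hours at 5 doses. GI50 = concentration required for 50% inhibition of growth. Definition used: TGI = concentration required for complete inhibition of growth.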

Key:
Assay in all cases: NCI-60 cell line screen, 48 h
[1] = tested on: U251 CNS
[2] = tested on: NCI-H460 lung
[3] = tested on: OVCAR-5 ovarian
[4] = tested on: UACC-257 melanoma
[5] = tested on: SK-MEL-5 melanoma
[6] = tested on: SF-295 CNS
[7] = tested on: HCT-116 colon
[8] = tested on: IGROV1 ovarian
[9] = tested on: HT29 colon

Structure (SMILES)	TGI [1] [µM]	TGI [2] [µM]	TGI [3] [µM]	TGI [4] [µM]	TGI [5] [µM]	TGI [6] [µM]	TGI [7] [µM]	TGI [8] [µM]	TGI [9] [µM]	GI50 [1] [µM]	GI50 [2] [µM]	GI50 [3] [µM]	GI50 [5] [µM]	GI50 [6] [µM]	GI50 [7] [µM]	GI50 [8] [µM]	GI50 [4] [µM]	GI50 [9] [µM]
COc1ccc2nc3c(c(NCCCN(C)C)c2c1)CCCC3	30.1	24.3	35.6	31.3	29.2	29	17.2	47	27.6									
O=C1Nc2cc([N+](=O)[O-])c(Br)cc2C1=O		> 100		35.1	60.7	14.3		32.7	41.9									
COc1ccc(C(Cc2ccccc2)C2NC(=S)NC2=O)cc1 (stereo not given)	> 25	> 25	> 25	> 25	> 25	> 25	> 25	> 25	> 25									
C=C(C)C1CC/C(C)=C/CC[C@]2(C)O[C@@H]2CCC2=CC1OC2=O (stereo not given in full)	> 100	> 100	> 100		> 100	> 100	> 100	> 100		21.7	> 100	0.635	78.8	24	27.6	50.4		
CCOC(=O)c1cc2c(OCc3ccccc3)c(OC)cc3c2c(n1)N(c1ccc(OC)cc1)C(C)C3 (stereo not given)	> 50	> 50	> 50		> 50	> 50	> 50	> 50										
O=NN(CCF)C(=O)NC1CC2CCC1C2 (stereo not given)	> 100	> 100	> 100	> 100	> 100	> 100	> 100	> 100	> 100									
Cc1cn(C2CC(CCCO)C(CO)O2)c(=O)[nH]c1=O (stereo not given)	> 100	> 100	> 100	> 100	> 100	> 100	> 100	> 100	> 100									
CCC(COC(=O)CC[C@@H](NC(=O)C(C)NC(=O)C(C)OC1C(O)C(CO)OC(OCc2ccccc2)C1NC(C)=O)C(N)=O)NC1c2ccccc2Nc2cccc([N+](=O)[O-])c21 (stereo not given in full)	> 100	> 100	> 100	> 100	> 100	> 100	> 100	> 100	> 100									
Nc1cccc(S(=O)(=O)Nc2nnc(S(N)(=O)=O)s2)c1	> 100	> 100	> 100		> 100	> 100	> 100	> 100	> 100									
COc1ccc(/C=C/C(=O)c2ccc(-n3cc(CN4CCN(c5cc6c(cc5F)c(=O)c(C(=O)O)cn6C5CC5)CC4)nn3)cc2)cc1OC	> 100	6.66	25.7	> 100	7.74	> 100			> 100	1.48	2.4	3.7	2.64	2.91			6.34	1.24
CCOC(=O)CCC1(C(=O)OCC)CCCC1=O (stereo not given)	> 100	> 100	> 100	> 100	> 100	> 100	> 100	> 100	> 100									
COc1cc(C2C(Cl)C(=O)N2NC(=O)c2ccc(NC(C)=O)cc2)ccc1O (stereo not given)	> 100	> 100	> 100	> 100	> 100	> 100	> 100	> 100	> 100									
CC1(C)C2CCC3(OCCO3)C1C(O)C2 (stereo not given)	> 100	> 100	> 100	> 100	> 100	> 100	> 100	> 100	> 100									
CC(=O)OC12c3ccccc3C(c3ccccc31)C1C(=O)N(c3ccccn3)C(=O)C12 (stereo not given)	> 100		> 100	> 100	> 100	> 100	> 100	> 100	> 100									
COC(=O)CC(C(C(=O)OCc1ccccc1)C(C)O)N1C(=O)OC(c2ccccc2)C1c1ccccc1 (stereo not given)	> 100	> 100		> 100	> 100	> 100	> 100	> 100	> 100									
CC(=O)NC(CCCCN)C(=O)NCc1ccccc1 (stereo not given)	> 100	> 100	> 100	> 100	> 100	> 100	> 100	> 100	> 100									
N#C/C(=C\c1ccc([N+](=O)[O-])s1)c1nc2cc(Cl)ccc2s1	3.02				0.955		1.27	4.52	> 100	0.599			0.314		0.329	0.94		3.29
COc1cccc(/C(Cl)=C(\C=O)c2cccc(OC)c2)c1	22.2	26.4	38	42.4	23.8	35.6	15	47.8	24.9									
